Results on one molecule are retold here after ChEMBL document CHEMBL3797141, “Design, synthesis and preliminary biological evaluation of 4-aminopyrazole derivatives as novel and potent JAKs inhibitors” (Bioorg Med Chem, 2016).

Experiment [1] addresses Tyrosine-protein kinase JAK2 (Homo sapiens, UniProt O60674). More on the design: species or system Sf21.
Experiment [2] deals with Tyrosine-protein kinase JAK1 (Homo sapiens, UniProt P23458).
Experiment [3] addresses T1, Tyrosine-protein kinase JAK3 (Homo sapiens, UniProt P52333).
T1 sequence (P52333 whole entry): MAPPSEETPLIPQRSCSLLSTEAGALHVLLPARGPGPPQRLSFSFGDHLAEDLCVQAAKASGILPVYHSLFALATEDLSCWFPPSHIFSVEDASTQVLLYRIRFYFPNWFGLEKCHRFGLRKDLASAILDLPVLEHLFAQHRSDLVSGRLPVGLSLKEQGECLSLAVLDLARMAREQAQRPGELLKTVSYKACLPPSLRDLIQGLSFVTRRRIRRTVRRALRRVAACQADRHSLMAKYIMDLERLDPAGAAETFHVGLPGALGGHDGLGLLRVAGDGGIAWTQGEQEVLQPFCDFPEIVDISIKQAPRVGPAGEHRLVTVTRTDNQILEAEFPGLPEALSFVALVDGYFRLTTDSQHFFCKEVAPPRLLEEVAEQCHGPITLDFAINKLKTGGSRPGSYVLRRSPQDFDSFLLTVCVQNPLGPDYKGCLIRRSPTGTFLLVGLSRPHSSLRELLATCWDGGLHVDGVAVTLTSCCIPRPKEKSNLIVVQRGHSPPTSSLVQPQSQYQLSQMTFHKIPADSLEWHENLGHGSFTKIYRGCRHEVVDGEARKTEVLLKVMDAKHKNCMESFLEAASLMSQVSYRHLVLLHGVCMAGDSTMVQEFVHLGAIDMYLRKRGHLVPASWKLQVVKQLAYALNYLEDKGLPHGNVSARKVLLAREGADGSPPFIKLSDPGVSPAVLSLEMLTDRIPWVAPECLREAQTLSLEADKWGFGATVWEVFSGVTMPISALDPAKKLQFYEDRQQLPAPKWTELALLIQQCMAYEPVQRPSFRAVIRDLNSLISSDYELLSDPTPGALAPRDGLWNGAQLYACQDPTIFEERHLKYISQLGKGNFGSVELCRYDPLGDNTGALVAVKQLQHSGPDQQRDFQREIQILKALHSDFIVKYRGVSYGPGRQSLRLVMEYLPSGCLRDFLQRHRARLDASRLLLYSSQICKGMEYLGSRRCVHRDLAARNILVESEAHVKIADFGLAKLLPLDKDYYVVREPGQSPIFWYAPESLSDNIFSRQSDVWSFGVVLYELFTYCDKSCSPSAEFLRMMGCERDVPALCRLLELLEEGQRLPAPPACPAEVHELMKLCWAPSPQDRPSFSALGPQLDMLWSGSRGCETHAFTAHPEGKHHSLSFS

Sequence of Tyrosine-protein kinase JAK2 (O60674 whole entry): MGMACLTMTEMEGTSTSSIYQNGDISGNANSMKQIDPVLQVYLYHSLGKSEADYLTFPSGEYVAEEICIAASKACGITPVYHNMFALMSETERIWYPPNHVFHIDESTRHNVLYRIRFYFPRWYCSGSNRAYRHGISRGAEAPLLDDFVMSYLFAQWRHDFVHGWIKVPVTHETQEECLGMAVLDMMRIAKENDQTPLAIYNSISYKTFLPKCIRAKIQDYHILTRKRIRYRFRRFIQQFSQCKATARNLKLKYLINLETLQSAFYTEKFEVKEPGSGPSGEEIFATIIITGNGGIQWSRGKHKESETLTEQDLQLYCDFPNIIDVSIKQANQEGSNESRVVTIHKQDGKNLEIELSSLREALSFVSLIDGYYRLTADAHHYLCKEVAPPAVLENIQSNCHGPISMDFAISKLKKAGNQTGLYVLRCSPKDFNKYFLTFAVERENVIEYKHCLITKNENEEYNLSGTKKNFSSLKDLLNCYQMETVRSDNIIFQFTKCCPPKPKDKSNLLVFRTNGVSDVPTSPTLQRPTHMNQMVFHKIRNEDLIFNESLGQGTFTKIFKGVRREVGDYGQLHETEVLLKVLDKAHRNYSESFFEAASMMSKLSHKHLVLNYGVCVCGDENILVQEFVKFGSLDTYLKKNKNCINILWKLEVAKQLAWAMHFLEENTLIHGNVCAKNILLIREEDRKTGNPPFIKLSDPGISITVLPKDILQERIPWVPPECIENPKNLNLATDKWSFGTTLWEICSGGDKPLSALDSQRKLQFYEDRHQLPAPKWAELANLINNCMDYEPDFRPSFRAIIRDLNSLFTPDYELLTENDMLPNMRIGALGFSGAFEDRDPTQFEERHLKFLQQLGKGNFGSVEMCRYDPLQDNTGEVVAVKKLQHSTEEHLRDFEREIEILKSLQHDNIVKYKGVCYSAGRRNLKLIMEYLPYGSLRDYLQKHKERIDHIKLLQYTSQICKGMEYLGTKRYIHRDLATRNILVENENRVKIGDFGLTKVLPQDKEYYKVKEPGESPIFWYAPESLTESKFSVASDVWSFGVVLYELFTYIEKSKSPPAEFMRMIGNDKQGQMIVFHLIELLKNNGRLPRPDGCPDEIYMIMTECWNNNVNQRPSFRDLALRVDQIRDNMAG
Sequence of Tyrosine-protein kinase JAK1 (P23458 whole entry): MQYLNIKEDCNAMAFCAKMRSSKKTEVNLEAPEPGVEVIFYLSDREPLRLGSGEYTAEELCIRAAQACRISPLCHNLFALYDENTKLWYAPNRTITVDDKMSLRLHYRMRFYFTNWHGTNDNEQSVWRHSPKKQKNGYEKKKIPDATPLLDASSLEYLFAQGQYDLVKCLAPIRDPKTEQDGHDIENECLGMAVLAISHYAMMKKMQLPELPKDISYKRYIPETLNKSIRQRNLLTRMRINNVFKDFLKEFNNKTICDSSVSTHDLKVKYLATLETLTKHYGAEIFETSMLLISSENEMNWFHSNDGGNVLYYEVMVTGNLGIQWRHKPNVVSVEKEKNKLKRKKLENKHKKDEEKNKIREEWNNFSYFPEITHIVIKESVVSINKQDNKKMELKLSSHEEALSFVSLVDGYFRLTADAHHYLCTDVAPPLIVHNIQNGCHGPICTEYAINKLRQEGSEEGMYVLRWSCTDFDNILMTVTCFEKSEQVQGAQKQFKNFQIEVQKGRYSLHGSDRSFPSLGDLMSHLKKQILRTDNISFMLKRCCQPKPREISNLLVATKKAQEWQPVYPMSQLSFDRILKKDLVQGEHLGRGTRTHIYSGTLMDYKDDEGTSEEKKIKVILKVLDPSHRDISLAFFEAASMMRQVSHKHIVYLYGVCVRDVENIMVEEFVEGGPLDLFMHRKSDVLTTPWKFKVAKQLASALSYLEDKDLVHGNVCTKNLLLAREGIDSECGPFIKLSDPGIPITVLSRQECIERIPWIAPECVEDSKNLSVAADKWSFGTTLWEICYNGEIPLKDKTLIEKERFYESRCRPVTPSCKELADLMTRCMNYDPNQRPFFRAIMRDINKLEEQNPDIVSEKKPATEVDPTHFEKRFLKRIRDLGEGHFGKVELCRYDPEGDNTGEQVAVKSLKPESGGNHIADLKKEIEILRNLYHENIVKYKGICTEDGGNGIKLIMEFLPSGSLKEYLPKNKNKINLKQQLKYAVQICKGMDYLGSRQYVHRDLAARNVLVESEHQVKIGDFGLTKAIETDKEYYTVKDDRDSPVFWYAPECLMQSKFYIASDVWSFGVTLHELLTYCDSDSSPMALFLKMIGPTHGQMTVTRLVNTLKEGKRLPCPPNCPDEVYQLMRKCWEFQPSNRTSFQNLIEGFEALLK

On to `CNc1nc(Nc2cnn(C(CC(N)=O)C3CCCCC3)c2)ncc1C(F)(F)F` (stereo not drawn), for which the IC50 in experiment [1] was found to be 98 nM; in experiment [2] it was 670 nM; in experiment [3] it was 39 nM.
